# Data published in patent EP0113632A1, “Process for the preparation of halogen methylates of levallorphane, and peripheral narcotic antagonist pharmaceutical compositions containing them” (SANOFI S.A., priority 1982, dated 1984).
# Legend:
# [1] = test system: effet constipant de la morphine; assay: Charcoal meal intestinal transit test (Green, modified): antagonism of the constipating effect of morphine; assay type: in vivo, souris; details: for ED50: Mus musculus, sc, read-out: Antagonisme à l'effet constipant DI50c; for ED50 / Antagonisme à l'effet constipant DI50c: female mice fasted 20 h, s.c. 5 min before morphine 12 mg/kg s.c. and charcoal meal, sacrifice after 30 min, dose inhibiting the effect by 50 %, extrapolated from log dose-response regression, limits in parentheses
# Protocol: L'antagonisme à l'effet constipant de la morphine des halomèthylates de lévallorphan de la présente invention a été évalué selon le test décrit par A.F. Green (Pr. J. Pharmacol. Chemother. 1959, 14, 26), opportunément modifié.
# On utilise trois groupes de souris femelles de 20 g environ à jeun depuis 20 heures. A un groupe témoin, on administre par voie orale un repas constitué par 0,2 ml d'un mélange de gomme arabique 5 % (6 ml), farine (2 g) et charbon (1 g). Au deuxième groupe on administre par la voie sous-cutanée 12 mg/kg de morphine et, immédiatement après, le repas au charbon ci-dessus. Le troisième groupe est traité par l'antagoniste sous examen par voie sous-cutanée, puis, après 5 minutes, par 12 mg/kg de morphine par voie sous-cutanée et, tout de suite après, par le repas au charbon. Après trente minutes, les animaux sont sacrifiés pour l'évaluation de la portion intestinale parcourue par le charbon, exprimée en pour cent de la longueur totale de l'intestin grèle.
# (§1) L'activité des substances à activité antagoniste périphérique des narcotiques est évaluée sur la base de l'inhibition pour cent de l'effet constipant et de l'effet analgésique de la morphine. La dose qui inhibe de 50 % lesdits effets (DI50c pour l'effet constipant et […] pour l'effet analgésique) a été extrapolée de la droite de régression log dose-réponse en appliquant l'analyse de la variance par régression linéaire.
# [2] = test system: effet analgésique de la morphine; assay: Hot plate test: antagonism of the analgesic effect of morphine; assay type: in vivo, souris; details: for ED50: Mus musculus, sc, read-out: Antagonisme à l'effet analgésique DI50a; for ED50 / Antagonisme à l'effet analgésique DI50a: female mice, s.c. 5 min before morphine 24 mg/kg s.c., hot plate 30 min after morphine, dose inhibiting the effect by 50 %, extrapolated from log dose-response regression, limits in parentheses; for DI50a/DI50c: ratio of DI50 for the analgesic effect (hot plate) to DI50 for the constipating effect (charcoal meal)
# Protocol: L'antagonisme à l'effet analgésique de la morphine a été évalué selon le test classique pour l'analgésie de la plaque chauffante (Eddy et Leibach, J. Pharmacol. 1953, 107, 385, modifié par Janseen et Jagenau, J. Pharm. Pharmacol. 1957, 9, 381-400). Ce test est très sensible pour l'action des antogonistes des opiacés.
# On utilise des souris femelles de 18 à 22 g. Les substances sont administrées en solution physiologique (20 ml/kg) par voie sous-cutanée 5 minutes avant l'administration de la morphine (24 mg/kg s.c.). Trente minutes après la morphine, on place les animaux sur la plaque chauffante et l'on évalue le temps de réaction des animaux qui présentent la réaction nocicéptive (léchage des pattes).
# as §1
Structure (SMILES),ED50 [1] [mg/kg],ED50 [2] [mg/kg],DI50a/DI50c [2],"activité antagoniste, périphérique ou centrale ([1]; conclusion in words, covers both the constipation and the analgesia test)",Antagonisme à l'effet constipant DI50c [1],Antagonisme à l'effet analgésique DI50a [2],"activité par rapport à celle du bromoallylate de lévallorphan ([1]; test of antagonism of the constipating effect of morphine, fold higher activity) [fois]"
"C=CC[N+]1(C)CCC23c4c5ccc(O)c4OC2C(O)C=CC3C1C5 (single isomer, unassigned) [bromométhylate de nalorphine]",3.7,8.6,"2,32",–,–,–,–
"C=CC[N+]1(C)CC[C@]23CCCC[C@H]2[C@H]1Cc1ccc(O)cc13 (single isomer, unassigned) [iodoallylate de lévorphanol]",–,–,–,inactif,50 mg/kg,50 mg/kg,–
"C=CC[N+]1(C)CC[C@]23CCCC[C@H]2[C@H]1Cc1ccc(O)cc13 (single isomer, unassigned) [iodométhylate de lévallorphan]",–,50,"6,7",–,"7,6 mg/kg (4,5 - 13,0)",–,> 2
C=CC[N+]1(CC=C)CC[C@]23CCCC[C@H]2[C@H]1Cc1ccc(O)cc13 [bromoallylate de lévallorphan],15.6,15.2,"0,97",–,–,–,–
"C=CCN1CC[C@]23c4c5ccc(O)c4O[C@H]2C(=O)CC[C@@]3(O)[C@H]1C5 [naloxone, N-allyl-noroxymorphone]",0.8,0.06,"0,08",–,–,–,–
C=CC[N+]1(C)CCC23c4c5ccc(O)c4OC2C(=O)CCC3(O)C1C5.COS(=O)(=O)[O-] (stereo not drawn) [sulfométhylate de naloxone],–,–,–,–,"5,8 mg/kg (2,9 - 11,5)","1,6 mg/kg (0,7 - 3,6)",–
